# Results published in patent US20230085307A1, “PYRIDAZINONE COMPOUND AND HERBICIDE” (NISSAN CHEMICAL CORPORATION, priority 2019, published 2023).
# How the values were obtained:
# late watergrass = test: Test Example 1: herbicidal activity, application before weed generation under submerged conditions (Table 16, symbol A); format: in vivo, late watergrass (Echinochloa oryzicola); conditions: 320 g/ha applied herbicide
# How it was run: (§1)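 Submerged Wagner pots (alluvial soil, 4 cm water) sown with weed seeds and planted with 2.5-leaf rice seedlings; emulsifiable concentrate diluted in water applied to water surface on sowing day. Held in greenhouse at 25-30 °C; injury scored 0-5 by herbicidal rate after three weeks.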
# Japanese bulrush = test: Test Example 1: herbicidal activity, application before weed generation under submerged conditions (Table 16, symbol B); format: in vivo, Japanese bulrush (Schoenoplectus juncoides); conditions: 320 g/ha applied herbicide
# How it was run: as §1
# oval-leafed pondweed = test: Test Example 1: herbicidal activity, application before weed generation under submerged conditions (Table 16, symbol C); format: in vivo, oval-leafed pondweed (Monochoria vaginalis); conditions: 320 g/ha applied herbicide
# How it was run: as §1
# barnyard grass [1] = test: Test Example 3: herbicidal effect by foliage application, Wagner pot (Table 18, symbol H); format: in vivo, barnyard grass (Echinochloa crus-galli); conditions: amount of applied herbicide 320 g/ha
# How it was run: (§2)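 Plants were sown in alluvial soil held under 0.1–0.5 cm standing water and grown 14 days in a greenhouse at 25–30 °C. An emulsifiable formulation, water-diluted to the set dose, was then sprayed onto the foliage, and effects were scored three weeks later using previously defined criteria.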
# Chinese sprangletop = test: Test Example 3: herbicidal effect by foliage application, Wagner pot (Table 18, symbol D); format: in vivo, chinese sprangletop (Leptochloa chinensis); conditions: amount of applied herbicide 320 g/ha
# How it was run: as §2
# rice flat sedge = test: Test Example 3: herbicidal effect by foliage application, Wagner pot (Table 18, symbol E); format: in vivo, rice flat sedge (Cyperus iria); conditions: amount of applied herbicide 320 g/ha
# How it was run: as §2
# southern crabgrass [2] = test: Test Example 4: herbicidal effect by soil treatment (Table 19, symbol F); format: in vivo, southern crabgrass (Digitaria ciliaris); conditions: amount of applied herbicide 320 g/ha
# How it was run: (§3)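 Herbicidal effect was rated 3 weeks after treatment, using the scoring criteria of an earlier test. The compound, formulated as an emulsion and diluted in water to a set herbicide amount, had been sprayed uniformly on soil over freshly sown seeds. Growth took place in a greenhouse at 25° C. to 30° C.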
# green foxtail [3] = test: Test Example 4: herbicidal effect by soil treatment (Table 19, symbol G); format: in vivo, green foxtail (Setaria viridis); conditions: amount of applied herbicide 320 g/ha
# How it was run: as §3
# barnyard grass [4] = test: Test Example 4: herbicidal effect by soil treatment (Table 19, symbol H); format: in vivo, barnyard grass (Echinochloa crus-galli); conditions: amount of applied herbicide 320 g/ha
# How it was run: as §3
# wild oat [5] = test: Test Example 4: herbicidal effect by soil treatment (Table 19, symbol I); format: in vivo, wild oat (Avena fatua); conditions: amount of applied herbicide 320 g/ha
# How it was run: as §3
# Italian ryegrass [6] = test: Test Example 4: herbicidal effect by soil treatment (Table 19, symbol K); format: in vivo, Italian ryegrass (Lolium multiflorum); conditions: amount of applied herbicide 320 g/ha
# How it was run: as §3
# windgrass [7] = test: Test Example 4: herbicidal effect by soil treatment (Table 19, symbol L); format: in vivo, windgrass (Apera spica-venti); conditions: amount of applied herbicide 320 g/ha
# How it was run: as §3
# velvetleaf [8] = test: Test Example 4: herbicidal effect by soil treatment (Table 19, symbol M); format: in vivo, velvetleaf (Abutilon theophrasti); conditions: amount of applied herbicide 320 g/ha
# How it was run: as §3
# redroot pigweed [9] = test: Test Example 4: herbicidal effect by soil treatment (Table 19, symbol N); format: in vivo, redroot pigweed (Amaranthus retroflexus); conditions: amount of applied herbicide 320 g/ha
# How it was run: as §3
# lambsquarters [10] = test: Test Example 4: herbicidal effect by soil treatment (Table 19, symbol O); format: in vivo, lambsquarters (Chenopodium album); conditions: amount of applied herbicide 320 g/ha
# How it was run: as §3
# false cleavers = test: Test Example 4: herbicidal effect by soil treatment (Table 19, symbol Q); format: in vivo, false cleavers (Galium spurium); conditions: amount of applied herbicide 320 g/ha
# How it was run: as §3
# persian speedwell [11] = test: Test Example 4: herbicidal effect by soil treatment (Table 19, symbol R); format: in vivo, Persian speedwell (Veronica persica); conditions: amount of applied herbicide 320 g/ha
# How it was run: as §3
# southern crabgrass [12] = test: Test Example 5: herbicidal effect by foliage application, plastic box (Table 20, symbol F); format: in vivo, southern crabgrass (Digitaria ciliaris); conditions: foliage application, AAH 320 g/ha, evaluated three weeks after application
# How it was run: (§4)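 Foliar spray test: emulsion formulation diluted in water to a set application rate, sprayed onto 14-day-old plants raised in diluvial soil at 25° C to 30° C under glass. Both herbicidal effect and crop effect rated visually three weeks later.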
# green foxtail [13] = test: Test Example 5: herbicidal effect by foliage application, plastic box (Table 20, symbol G); format: in vivo, green foxtail (Setaria viridis); conditions: foliage application, AAH 320 g/ha, evaluated three weeks after application
# How it was run: as §4
# barnyard grass [14] = test: Test Example 5: herbicidal effect by foliage application, plastic box (Table 20, symbol H); format: in vivo, barnyard grass (Echinochloa crus-galli); conditions: foliage application, AAH 320 g/ha, evaluated three weeks after application
# How it was run: as §4
# wild oat [15] = test: Test Example 5: herbicidal effect by foliage application, plastic box (Table 20, symbol I); format: in vivo, wild oat (Avena fatua); conditions: foliage application, AAH 320 g/ha, evaluated three weeks after application
# How it was run: as §4
# blackgrass [16] = test: Test Example 5: herbicidal effect by foliage application, plastic box (Table 20, symbol J); format: in vivo, blackgrass (Alopecurus myosuroides); conditions: foliage application, AAH 320 g/ha, evaluated three weeks after application
# How it was run: as §4
# Italian ryegrass [17] = test: Test Example 5: herbicidal effect by foliage application, plastic box (Table 20, symbol K); format: in vivo, Italian ryegrass (Lolium multiflorum); conditions: foliage application, AAH 320 g/ha, evaluated three weeks after application
# How it was run: as §4
# windgrass [18] = test: Test Example 5: herbicidal effect by foliage application, plastic box (Table 20, symbol L); format: in vivo, windgrass (Apera spica-venti); conditions: foliage application, AAH 320 g/ha, evaluated three weeks after application
# How it was run: as §4
# velvetleaf [19] = test: Test Example 5: herbicidal effect by foliage application, plastic box (Table 20, symbol M); format: in vivo, velvetleaf (Abutilon theophrasti); conditions: foliage application, AAH 320 g/ha, evaluated three weeks after application
# How it was run: as §4
# redroot pigweed [20] = test: Test Example 5: herbicidal effect by foliage application, plastic box (Table 20, symbol N); format: in vivo, redroot pigweed (Amaranthus retroflexus); conditions: foliage application, AAH 320 g/ha, evaluated three weeks after application
# How it was run: as §4
# lambsquarters [21] = test: Test Example 5: herbicidal effect by foliage application, plastic box (Table 20, symbol O); format: in vivo, lambsquarters (Chenopodium album); conditions: foliage application, AAH 320 g/ha, evaluated three weeks after application
# How it was run: as §4
# chickweed = test: Test Example 5: herbicidal effect by foliage application, plastic box (Table 20, symbol P); format: in vivo, common chickweed (Stellaria media); conditions: foliage application, AAH 320 g/ha, evaluated three weeks after application
# How it was run: as §4
# persian speedwell [22] = test: Test Example 5: herbicidal effect by foliage application, plastic box (Table 20, symbol R); format: in vivo, Persian speedwell (Veronica persica); conditions: foliage application, AAH 320 g/ha, evaluated three weeks after application
# How it was run: as §4
# blackgrass [23] = test: Test Example 4: herbicidal effect by soil treatment (Table 19, symbol J); format: in vivo, blackgrass (Alopecurus myosuroides); conditions: amount of applied herbicide 320 g/ha
# How it was run: as §3
SMILES,Herbicidal effect on A: late watergrass (grade 0-5) (late watergrass),Herbicidal effect on B: Japanese bulrush (grade 0-5) (Japanese bulrush),Herbicidal effect on C: oval-leafed pondweed (grade 0-5) (oval-leafed pondweed),herbicidal effect on H: barnyard grass (barnyard grass [1]),herbicidal effect on D: Chinese sprangletop (Chinese sprangletop),herbicidal effect on E: rice flat sedge (rice flat sedge),herbicidal effect on F: southern crabgrass (southern crabgrass [2]),herbicidal effect on G: green foxtail (green foxtail [3]),herbicidal effect on H: barnyard grass (barnyard grass [4]),herbicidal effect on I: wild oat (wild oat [5]),herbicidal effect on K: Italian ryegrass (Italian ryegrass [6]),herbicidal effect on L: windgrass (windgrass [7]),herbicidal effect on M: velvetleaf (velvetleaf [8]),herbicidal effect on N: redroot pigweed (redroot pigweed [9]),herbicidal effect on O: lambsquarters (lambsquarters [10]),herbicidal effect on Q: false cleavers (false cleavers),herbicidal effect on R: persian speedwell (persian speedwell [11]),"F: southern crabgrass, herbicidal effect (criteria 0-5) (southern crabgrass [12])","G: green foxtail, herbicidal effect (criteria 0-5) (green foxtail [13])","H: barnyard grass, herbicidal effect (criteria 0-5) (barnyard grass [14])",other results
Cc1nn(C)c(=O)c(-c2c(-c3ccc(SCC(F)F)cc3)sc3ccc(F)cc23)c1O [2-260],3 (Herbicidal rate of 40% or more and less than 70%),0 (Herbicidal rate of 5% or less (almost no effect)),0 (Herbicidal rate of 5% or less (almost no effect)),5 (Herbicidal rate of 90% or more (almost completely withered)),3 (Herbicidal rate of 40% or more and less than 70%),3 (Herbicidal rate of 40% or more and less than 70%),4 (Herbicidal rate of 70% or more and less than 90%),5 (Herbicidal rate of 90% or more (almost completely withered)),3 (Herbicidal rate of 40% or more and less than 70%),0 (Herbicidal rate of 5% or less (almost no effect)),0 (Herbicidal rate of 5% or less (almost no effect)),0 (Herbicidal rate of 5% or less (almost no effect)),3 (Herbicidal rate of 40% or more and less than 70%),5 (Herbicidal rate of 90% or more (almost completely withered)),5 (Herbicidal rate of 90% or more (almost completely withered)),0 (Herbicidal rate of 5% or less (almost no effect)),3 (Herbicidal rate of 40% or more and less than 70%),5 (Herbicidal rate of 90% or more (almost completely withered)),5 (Herbicidal rate of 90% or more (almost completely withered)),5 (Herbicidal rate of 90% or more (almost completely withered)),"I: wild oat, herbicidal effect (criteria 0-5) (wild oat [15]): 5 (Herbicidal rate of 90% or more (almost completely withered)); J: blackgrass, herbicidal effect (criteria 0-5) (blackgrass [16]): 4 (Herbicidal rate of 70% or more and less than 90%); K: Italian ryegrass, herbicidal effect (criteria 0-5) (Italian ryegrass [17]): 5 (Herbicidal rate of 90% or more (almost completely withered)); L: windgrass, herbicidal effect (criteria 0-5) (windgrass [18]): 5 (Herbicidal rate of 90% or more (almost completely withered)); M: velvetleaf, herbicidal effect (criteria 0-5) (velvetleaf [19]): 4 (Herbicidal rate of 70% or more and less than 90%); N: redroot pigweed, herbicidal effect (criteria 0-5) (redroot pigweed [20]): 5 (Herbicidal rate of 90% or more (almost completely withered)); O: lambsquarters, herbicidal effect (criteria 0-5) (lambsquarters [21]): 5 (Herbicidal rate of 90% or more (almost completely withered)); P: chickweed, herbicidal effect (criteria 0-5) (chickweed): 5 (Herbicidal rate of 90% or more (almost completely withered)); R: persian speedwell, herbicidal effect (criteria 0-5) (persian speedwell [22]): 5 (Herbicidal rate of 90% or more (almost completely withered))"
Cc1nn(C)c(=O)c(-c2c(-c3cccc(OCc4ccccc4)c3)sc3ccc(F)cc23)c1O [2-267],2 (Herbicidal rate of 20% or more and less than 40%),0 (Herbicidal rate of 5% or less (almost no effect)),0 (Herbicidal rate of 5% or less (almost no effect)),5 (Herbicidal rate of 90% or more (almost completely withered)),5 (Herbicidal rate of 90% or more (almost completely withered)),3 (Herbicidal rate of 40% or more and less than 70%),5 (Herbicidal rate of 90% or more (almost completely withered)),3 (Herbicidal rate of 40% or more and less than 70%),5 (Herbicidal rate of 90% or more (almost completely withered)),0 (Herbicidal rate of 5% or less (almost no effect)),0 (Herbicidal rate of 5% or less (almost no effect)),0 (Herbicidal rate of 5% or less (almost no effect)),0 (Herbicidal rate of 5% or less (almost no effect)),2 (Herbicidal rate of 20% or more and less than 40%),0 (Herbicidal rate of 5% or less (almost no effect)),0 (Herbicidal rate of 5% or less (almost no effect)),4 (Herbicidal rate of 70% or more and less than 90%),4 (Herbicidal rate of 70% or more and less than 90%),5 (Herbicidal rate of 90% or more (almost completely withered)),5 (Herbicidal rate of 90% or more (almost completely withered)),"herbicidal effect on J: blackgrass (blackgrass [23]): 0 (Herbicidal rate of 5% or less (almost no effect)); I: wild oat, herbicidal effect (criteria 0-5) (wild oat [15]): 0 (Herbicidal rate of 5% or less (almost no effect)); J: blackgrass, herbicidal effect (criteria 0-5) (blackgrass [16]): 2 (Herbicidal rate of 20% or more and less than 40%); K: Italian ryegrass, herbicidal effect (criteria 0-5) (Italian ryegrass [17]): 3 (Herbicidal rate of 40% or more and less than 70%); L: windgrass, herbicidal effect (criteria 0-5) (windgrass [18]): 0 (Herbicidal rate of 5% or less (almost no effect)); M: velvetleaf, herbicidal effect (criteria 0-5) (velvetleaf [19]): 3 (Herbicidal rate of 40% or more and less than 70%); N: redroot pigweed, herbicidal effect (criteria 0-5) (redroot pigweed [20]): 4 (Herbicidal rate of 70% or more and less than 90%); O: lambsquarters, herbicidal effect (criteria 0-5) (lambsquarters [21]): 4 (Herbicidal rate of 70% or more and less than 90%); P: chickweed, herbicidal effect (criteria 0-5) (chickweed): 5 (Herbicidal rate of 90% or more (almost completely withered)); R: persian speedwell, herbicidal effect (criteria 0-5) (persian speedwell [22]): 5 (Herbicidal rate of 90% or more (almost completely withered))"
